Data taken from paper PMC11272821, “Mechanistic safety assessment via multi-omic characterisation of systemic pathway perturbations following in vivo MAT2A inhibition” (Archives of Toxicology, 2024).

Test system: methionine
Experiment: Targeted LC–MS of methionine in plasma, liver, brain and heart
Type: in vivo, rat
Details: 30 mg/kg BID
Description: SAM and methionine levels were quantified in plasma samples and tissues using Ultra Performance Liquid Chromatography (UPLC) coupled with quantitative MS in ESI positive ion mode as described in Supplementary M&M.
For LCMS analysis, standard curves were spiked to give a calibrated range of 1.0 – 1000 nM for SAM and 1.0 – 2000 for methionine. 5 µL of standard spike solution was added to 45 µL of ACN/MeOH/H2O (40/40/20 v/v/v) and 2.5 µL of deuterated citrulline is added as an internal standard. A further calibration curve was prepared with 5 µL blank mouse plasma, 5 µL of standard and 40 µL of 40:40:20 Acetonitrile:Methanol:0.5% formic acid (Aq) with 2.5 µL of deuterated citrulline was used to investigate matrix suppression effects. Blank plasma was also diluted 1:10 with ACN/MeOH/H2O (40/40/20 v/v/v) and was also analysed to establish systemic biomarker levels.
Metabolomic sample preparation and analysis. Tissue samples (liver, brain, heart) were extracted with 1 mL of ACN/MeOH/H2O 40/40/20 v/v/v per 100 mg material in a PrecellysCK28K-2 mL tube. Tissues were homogenised/extracted in 3x20 sec shake at 5500 rpm and centrifuged for 5 min at 10,621g. After centrifugation a maximum of 800 µL clear supernatant was transferred to cryovials and the same amount of extraction solvent used in the first step was added to tissue precipitate. Extraction procedure was repeated as above and clear supernatants combined in the same cryovial and vial labelled as polar metabolite extract. On the remaining tissue pellet 1ml (per100mg tissue material) of Butanol/MeOH 3/1v/v was added and the above extraction sequence applied. Resulted clear supernatant transferred to a clean cryovial and labelled as lipid extract. All samples kept at the lowest available temperature (0 °C) throughout the extraction process and stored at -80 °C until further analysis.

Cn1cc2cc(-c3cc4[nH]nc(C5CC5)c4n(-c4ccc(OC(F)F)cc4)c3=O)ccc2n1 [AZ’9567]
Brain Methionine % Control: 1835 % Control
Heart Methionine % Control: 1316 % Control
Liver Methionine % Control: 2314 % Control
Plasma Methionine % Control: 1557 % Control
